For five compounds, IC50 results are on record in BindingDB's records for doi:10.1002/cbic.200800304 (Research Institute, Hospital For Sick Children, 2008).

SMILES strings stand for the structures.

This test concerns the target T1, Lysosomal acid glucosylceramidase (Homo sapiens, UniProt P04062).
T1 sequence (P04062 whole entry): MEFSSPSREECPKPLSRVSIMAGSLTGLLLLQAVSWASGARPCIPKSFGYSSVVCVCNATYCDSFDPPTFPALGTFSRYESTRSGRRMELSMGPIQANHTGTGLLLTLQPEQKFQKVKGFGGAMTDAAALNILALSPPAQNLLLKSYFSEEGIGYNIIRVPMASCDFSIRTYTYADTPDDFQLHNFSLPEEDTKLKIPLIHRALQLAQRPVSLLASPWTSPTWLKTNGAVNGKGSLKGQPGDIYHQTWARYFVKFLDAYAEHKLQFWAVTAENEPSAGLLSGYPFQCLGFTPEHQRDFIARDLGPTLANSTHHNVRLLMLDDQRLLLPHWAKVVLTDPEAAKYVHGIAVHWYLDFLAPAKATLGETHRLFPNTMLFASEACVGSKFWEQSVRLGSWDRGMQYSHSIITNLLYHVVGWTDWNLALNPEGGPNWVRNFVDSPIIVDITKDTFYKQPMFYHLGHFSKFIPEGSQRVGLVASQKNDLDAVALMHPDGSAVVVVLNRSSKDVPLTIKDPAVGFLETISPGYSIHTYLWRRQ
Description: Inhibiton Assay. The settings on record: pH 5.5; 37 °C. As to the method:
Beta-glucocerebrosidase (GCase) activity was measured by release of 4-methylumbelliferyl fluorophore from MUClc.

Broadly, the IC50 is the concentration needed to halve the response being measured. Read a low IC50 as greater potency in that assay. In the case of `Cc1ccc(Sc2cccc3nc(N)nc(N)c23)cc1`, the IC50 came out at 7.8 µM. Next, `CC(C)(C)C(=O)Nc1ccncc1` [2,2-dimethyl-N-(4-pyridinyl)propanamide, 2b]: > 400 µM; `Nc1nc(N)c2cc([N+](=O)[O-])ccc2n1` [2,4-diamino-6-nitro-quinazoline, 1a]: 61 µM; `O=C(Nc1ccncc1)c1ccc(Oc2cc(Cl)cc(Cl)c2)o1` [5-(3,5-dichlorophenoxy)-N-(4-pyrdinyl)-2-furamide, 2]: 4.7 µM. Next, `CCOc1ccc2c(N)nc(N)nc2c1OCC` [7,8-diethoxy-quinazoline 2,4-diamine, 1b]: 22 µM.
